Test results reported in ChEMBL document CHEMBL1145548, “Selective plasma protein binding of antimalarial drugs to alpha1-acid glycoprotein” (Bioorg Med Chem, 2008).

What was measured:
Albumin [1] = target: T1, Albumin (Homo sapiens, UniProt P02768); assay: Binding affinity to human serum albumin on sepharose column by affinity chromatography; assay type: ADME; settings: isolated protein
Albumin [2] = target: T1, Albumin; assay: Binding affinity to human serum albumin by circular dichroism and UV/VIS spectroscopic method; assay type: ADME; settings: isolated protein
[3] = target: Alpha-1-acid glycoprotein 1 (Homo sapiens, UniProt P02763); assay: Binding affinity to human ORM1 at 37 degC by induced circular dichroism method
Homo sapiens [4] = species on record: Homo sapiens; assay: Displacement of quinaldine red from human AAG by fluorescence method
Homo sapiens [5] = species on record: Homo sapiens; assay: Binding affinity to human AAG at 37 degC by induced circular dichroism method
[6] = target: Alpha-1-acid glycoprotein 2 (Homo sapiens, UniProt P19652); assay: Binding affinity to human ORM2 at 37 degC by induced circular dichroism method
Homo sapiens [7] = species on record: Homo sapiens; assay: Binding affinity to human AAG at 23 degC by induced circular dichroism method
Albumin [8] = target: T1, Albumin; assay: Binding affinity to human serum albumin by fluorescence emission spectra; assay type: ADME; settings: isolated protein
Homo sapiens [9] = species on record: Homo sapiens; assay: Binding affinity to human AAG by fluorescence emission spectra

T1 sequence (P02768 whole entry): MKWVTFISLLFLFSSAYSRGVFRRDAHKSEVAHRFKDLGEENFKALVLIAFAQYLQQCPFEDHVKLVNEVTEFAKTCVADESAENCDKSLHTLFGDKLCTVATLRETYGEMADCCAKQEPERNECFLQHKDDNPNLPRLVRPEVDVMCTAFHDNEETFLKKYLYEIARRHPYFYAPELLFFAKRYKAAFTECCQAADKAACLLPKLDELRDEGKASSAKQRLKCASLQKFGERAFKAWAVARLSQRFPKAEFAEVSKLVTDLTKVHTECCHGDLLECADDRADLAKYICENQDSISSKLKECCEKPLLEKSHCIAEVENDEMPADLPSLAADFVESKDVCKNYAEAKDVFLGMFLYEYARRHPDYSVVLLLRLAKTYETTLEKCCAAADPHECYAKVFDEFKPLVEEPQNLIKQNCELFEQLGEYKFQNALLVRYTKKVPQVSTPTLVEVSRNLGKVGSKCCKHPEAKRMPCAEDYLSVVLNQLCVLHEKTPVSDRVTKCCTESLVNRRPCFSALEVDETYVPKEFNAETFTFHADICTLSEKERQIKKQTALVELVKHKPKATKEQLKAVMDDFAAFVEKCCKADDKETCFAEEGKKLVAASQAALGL
Chain of Alpha-1-acid glycoprotein 1 (P02763 whole entry): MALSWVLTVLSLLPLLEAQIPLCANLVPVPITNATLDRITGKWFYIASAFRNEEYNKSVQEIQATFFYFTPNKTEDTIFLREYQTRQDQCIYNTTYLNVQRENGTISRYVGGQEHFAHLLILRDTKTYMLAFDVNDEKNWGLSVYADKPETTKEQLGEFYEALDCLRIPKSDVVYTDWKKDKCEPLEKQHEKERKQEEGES
Chain of Alpha-1-acid glycoprotein 2 (P19652 whole entry): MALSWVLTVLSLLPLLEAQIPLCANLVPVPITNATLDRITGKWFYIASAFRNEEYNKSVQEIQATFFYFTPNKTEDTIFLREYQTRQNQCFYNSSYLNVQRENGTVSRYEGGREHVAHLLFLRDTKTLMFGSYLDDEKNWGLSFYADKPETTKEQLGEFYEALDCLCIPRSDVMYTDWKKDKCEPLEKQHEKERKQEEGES

Row | Structure (SMILES) | Ka (Albumin [1]) | Ka (Homo sapiens [4]) | also measured
1 | CCN(CC)Cc1cc(Nc2ccnc3cc(Cl)ccc23)ccc1O.Cl | 2 10^4/M | – | Ka (Albumin [2]): 6200 M⁻¹
2 | CC(=O)O[C@H]1N=C(c2ccccc2Cl)c2cc(Cl)ccc2NC1=O | 2 10^4/M | – | –
3 | CC(=O)O[C@@H]1N=C(c2ccccc2)c2cc(Cl)ccc2NC1=O | 8 10^4/M | – | –
4 | CCN(CC)Cc1cc(Nc2ccnc3cc(Cl)ccc23)ccc1O.Cl.Cl.Cl | – | – | Ka [3]: 5.8 10^4/M
5 | CC(=O)O[C@@H]1N=C(c2ccccc2Cl)c2cc(Cl)ccc2NC1=O | 4 10^4/M | – | –
6 | CC(=O)O[C@H]1N=C(c2ccccc2)c2cc(Cl)ccc2NC1=O | 1 10^4/M | – | –
7 | CC#C[C@]1(O)CC[C@H]2[C@@H]3CCC4=CC(=O)CCC4=C3[C@@H](c3ccc(N(C)C)cc3)C[C@@]21C | – | 4 10^6/M | –
8 | CCN(CC)CCCC(C)Nc1c2ccc(Cl)cc2nc2ccc(OC)cc12 (stereo not given) | – | – | Ka (Homo sapiens [5]): 2.3 10^5/M
9 | CCN(CC)Cc1cc(Nc2ccnc3cc(Cl)ccc23)ccc1O | – | 1.1 10^5/M | Ka (Homo sapiens [5]): 4.8 10^4/M
10 | CN(C)CCCN1c2ccccc2Sc2ccc(Cl)cc21 | – | 8.4 10^5/M | –
11 | COc1cc(NC(C)CCCN)c2ncccc2c1 (stereo not given) | – | 4.2 10^5/M | Ka (Homo sapiens [5]): 4.1 10^5/M
12 | CC(C)NCC(O)COc1cccc2ccccc12 (racemic) | – | 1.5 10^5/M | –
13 | CCN(CC)CCCC(C)Nc1ccnc2cc(Cl)ccc12 (stereo not given) [CHLOROQUINE] | 2 10^3/M | 0.3 10^5/M | –
14 | OC(c1cc(C(F)(F)F)nc2c(C(F)(F)F)cccc12)C1CCCCN1 (stereo not given) [MEFLOQUINE] | 8 10^4/M | 8.7 10^5/M | –
15 | COc1cc(NC(C)CCCN)c2ncccc2c1.O=P(O)(O)O.O=P(O)(O)O (stereo not given) [PRIMAQUINE PHOSPHATE] | – | – | Ka [3]: 8 10^5/M
16 | COc1cc(NC(C)CCCN)c2ncccc2c1 (stereo not given) [PRIMAQUINE] | 7 10^3/M | – | –
17 | CCN(CC)CCCC(C)Nc1c2ccc(Cl)cc2nc2ccc(OC)cc12.Cl.Cl (stereo not given) [QUINACRINE DIHYDROCHLORIDE] | – | – | Ka [6]: 3.7 10^5/M
18 | CCN(CC)CCCC(C)Nc1c2ccc(Cl)cc2nc2ccc(OC)cc12 (stereo not given) [QUINACRINE] | 7 10^3/M | – | –
19 | COc1cc(C)c2c(Oc3cccc(C(F)(F)F)c3)c(OC)cc(NC(C)CCCN)c2n1 (stereo not given) [TAFENOQUINE] | 3 10^5/M | 1.8 10^6/M | Ka (Homo sapiens [5]): 3.3 10^5/M; Ka (Homo sapiens [7]): 1.1 10^6/M; Ka (Albumin [8]): 3 10^5/M; Ka (Albumin [2]): 24000 M⁻¹; Ka (Homo sapiens [9]): 1.6 10^6/M
